# Data as given in publication PMC6186498 (Toxicology, 2018).
# Read-outs that look alike come from different tables or passages of the source. Marks after values point to notes of the source that are not given here.
# Key:
# kidney = conditions: cited from earlier work
# [1] = human, cited from earlier work
# [2] = cited from earlier work; for inter-strain variability of TCA levels in liver, GSD: Collaborative Cross mouse population
# [3] = cited from earlier work; for carcinogenicity classification by IARC: ref Guha et al. 2012; for carcinogenicity classification by US EPA: ref U.S. EPA 2011a, b
# [4] = for flux through oxidation metabolism pathway over that through conjugation: across all mouse strains examined; for overall flux of glutathione conjugation expressed as dose: after equimolar treatment of TCE or PCE; for yield through glutathione conjugation pathway as % of that through oxidative pathway: range given for TCE and PCE together, approximately; for fraction of the total administered dose remaining unmetabolized until excretion: model estimate at steady state; for TCA(%), percentage of administered TCE excreted in urine / TCOH (%): This study (% estimated), 800 mg/kg oral, M
# [5] = cited from earlier work
# [6] = at low doses; ref Chiu et al. 2009; cited from earlier work
# [7] = 100 mg/kg oral, PBPK model estimate, ref Chiu et al 2011
# [8] = 1 ppm inhalation, M, ref Chiu et al 2006
# [9] = 10 ppm inhalation, PBPK model estimate, ref Chiu et al 2011
# [10] = 100 mg/kg oral, mice, PBPK model estimate, ref Chiu et al 2011
# [11] = 300 mg/kg oral, mice C57BL/6J, M, ref Cichocki et al 2017
# [12] = 10 ppm inhalation, mice, PBPK model estimate, ref Chiu et al 2011
# [13] = mean ± SD, average of all strains, single oral dose 6 mmole/kg
# [14] = range over strains, model estimate
# [15] = 100 mg/kg oral, rat, PBPK model estimate, ref Chiu et al 2011
# [16] = 10 ppm inhalation, rat, PBPK model estimate, ref Chiu et al 2011
# [17] = 1 ppm inhalation, M, PBPK model estimate, ref Chiu et al 2009
# [18] = 70 ppm inhalation, M, ref Monster 1976
# [19] = 70 ppm inhalation, M, ref Monster 1979
# [20] = 200 mg/kg stomach tube, mice NMRI, F, ref Dekant et al. 1984
# [21] = 500 mg/kg oral, mice B6C3F1/J, M, ref Green and Prout 1985
# [22] = 600 mg/kg oral, mice B6C3F1/J, M, ref Larson and Bull 1992
# [23] = 1000 mg/kg oral, mice, PBPK model estimate, ref Chiu et al 2009
# [24] = 2100 mg/kg oral, mice B6C3F1/J, M, PBPK model estimate, ref Chiu et al 2014
# [25] = model-derived AUCs across strains
# [26] = 200 mg/kg stomach tube, rat Wistar, F, ref Dekant et al. 1984
# [27] = 500 mg/kg oral, rat Osborne-Mendal, M, ref Green and Prout 1985
# [28] = 600 mg/kg oral, rat Sprague-Dawley, M, ref Larson and Bull 1992
# [29] = 100 ppm inhalation, rat, PBPK model estimate, ref Chiu et al 2009
smiles,measurement,setting,value
"N[C@@H](CSC(Cl)=CCl)C(=O)O [DCVC, S-(1,2-dichlorovinyl)-cysteine]",lowest dose with some adverse kidney effects observable,kidney; ref Shirai et al. 2012,1 mg/kg
"ClC(Cl)=C(Cl)Cl [PCE, tetrachloroethylene]",GSH conjugation (%),[1]; [7],18%
same,Oxidation to GSH,[1]; [7],0.1
same,"TCA (%), percentage of administered dose excreted in urine",[1]; [7],1.8%
same,"TCA (%), percentage of administered dose excreted in urine",[1]; [8],0.2–0.8%
same,Oxidation to GSH,"[1]; 10 ppm inhalation, M&F, ref Volkel et al 1998",107.7
same,GSH conjugation (%),[1]; [9],9.4%
same,Oxidation to GSH,[1]; [9],0.1
same,"TCA (%), percentage of administered dose excreted in urine",[1]; [9],0.98%
same,Oxidation to GSH,"[1]; 20 ppm inhalation, M&F, ref Volkel et al 1998",89.1
same,Oxidation to GSH,"[1]; 40 ppm inhalation, M&F, ref Volkel et al 1998",96.3
same,"TCA (%), percentage of administered dose excreted in urine","[1]; 72 ppm inhalation, M, ref Monster 1979",2%
same,GSH conjugation (%),[2]; [10],0.07%
same,Oxidation to GSH,[2]; [10],500
same,"TCA (%), percentage of administered dose excreted in urine",[2]; [10],35%
same,GSH conjugation (%),[2]; [11],0.79%
same,Oxidation to GSH,[2]; [11],7.5
same,"TCA (%), percentage of administered dose excreted in urine",[2]; [11],5.9%
same,GSH conjugation (%),[2]; [12],0.02%
same,Oxidation to GSH,[2]; [12],600
same,"TCA (%), percentage of administered dose excreted in urine",[2]; [12],12%
same,"inter-strain variability of TCA levels in liver, GSD","[2]; single oral dose of PCE, ref Cichocki et al. 2017b",1.64
same,exhalation fraction of PCE,"[2]; mice orally dosed with 500 mg/kg 14C-labelled PCE, ref Schumann et al. 1980",82.6%
same,carcinogenicity classification by IARC,[3],probably carcinogenic to humans
same,carcinogenicity classification by US EPA,[3],likely to be a human carcinogen
same,flux through oxidation metabolism pathway over that through conjugation,[4],26–34 fold
same,overall flux of glutathione conjugation expressed as dose,[4],2.9 to 4.5 mg/kg
same,"First order rate constant, Elimination T/PCE→",[4]; [13],0.17 ± 0.04 h⁻¹
same,"First order rate constant, GSH conjugation T/PCE→D/TCVG",[4]; [13],(460±230)*10^−6 h^−1
same,"First order rate constant, Oxidation T/PCE→TCA",[4]; [13],0.014 ± 0.003 h⁻¹
same,yield through glutathione conjugation pathway as % of that through oxidative pathway,[4],0.033%−3.3
same,portion of the parent compound that undergoes metabolism,[4]; range over strains,6.6%–9.7
same,estimated fraction of the reactive species formation from cysteine conjugates,[4]; [14],46.7% to 52.6
same,fraction of the total administered dose remaining unmetabolized until excretion,[4]; range over strains,90.3% to 93.5
same,GSH conjugation (%),[5]; [15],0.6%
same,Oxidation to GSH,[5]; [15],14.8
same,"TCA (%), percentage of administered dose excreted in urine",[5]; [15],8.9%
same,Oxidation to GSH,"[5]; 10 ppm inhalation, rat Wistar, M&F, ref Volkel et al 1998",623.6
same,GSH conjugation (%),[5]; [16],0.2%
same,Oxidation to GSH,[5]; [16],19.5
same,"TCA (%), percentage of administered dose excreted in urine",[5]; [16],3.9%
same,Oxidation to GSH,"[5]; 20 ppm inhalation, rat Wistar, M&F, ref Volkel et al 1998",540.6
same,Oxidation to GSH,"[5]; 40 ppm inhalation, rat Wistar, M&F, ref Volkel et al 1998",316.4
"ClC=C(Cl)Cl [TCE, Trichloroethylene]",GSH conjugation (%),[1]; [17],5%
same,Oxidation to GSH,[1]; [17],7.6
same,"TCA(%) and TCOH (%), one cell spanning both columns",[1]; [17],38%
same,"TCA(%), percentage of administered TCE excreted in urine",[1]; [8],1–2%
same,TCOH (%),[1]; [8],16–28%
same,"TCA(%), percentage of administered TCE excreted in urine",[1]; [18],18%
same,TCOH (%),[1]; [18],39%
same,"TCA(%), percentage of administered TCE excreted in urine",[1]; [19],21%
same,TCOH (%),[1]; [19],43%
same,"TCA(%), percentage of total urinary metabolite calculated based on radioactivity",[2]; [20],0.1 ^* %
same,"TCOH (%), percentage of total urinary metabolite calculated based on radioactivity",[2]; [20],94.3 ^* %
same,"TCA(%), percentage of total urinary metabolite calculated based on radioactivity",[2]; [21],7.2 ^* %
same,"TCOH (%), percentage of total urinary metabolite calculated based on radioactivity",[2]; [21],91.1 ^* %
same,"TCA(%), percentage of administered TCE excreted in urine",[2]; [22],3.9%
same,TCOH (%),[2]; [22],31%
same,GSH conjugation (%),[2]; [23],0.2%
same,Oxidation to GSH,[2]; [23],450
same,"TCA(%) and TCOH (%), one cell spanning both columns",[2]; [23],90%
same,GSH conjugation (%),[2]; [24],0.065%
same,Oxidation to GSH,[2]; [24],290
same,"TCA(%), percentage of administered TCE excreted in urine",[2]; [24],4.4%
same,"inter-strain variability of TCA levels in liver, GSD","[2]; single oral dose of TCE, ref Venkatratnam et al. 2017",2.24
same,carcinogenicity classification by IARC,[3],carcinogenic to humans
same,carcinogenicity classification by US EPA,[3],carcinogenic to humans
same,"AUC0–36 of TCE as compared to AUC0–36 of PCE, kidney","[4]; B6C3F1/J mice, kidney",2.0%
same,"AUC0–36 of TCE as compared to AUC0–36 of PCE, liver","[4]; B6C3F1/J mice, liver",43.9%
same,"AUC0–36 of TCE as compared to AUC0–36 of PCE, lung","[4]; B6C3F1/J mice, lung",36.2%
same,"AUC0–36 of TCE as compared to AUC0–36 of PCE, serum","[4]; B6C3F1/J mice, serum",39.8%
same,"TCA(%), percentage of administered TCE excreted in urine",[4]; mice B6C3F1/J,5.8%
same,TCOH (%),[4]; mice B6C3F1/J,21%
same,"TCA(%), percentage of administered TCE excreted in urine",[4]; mice C57BL/6J,3.5%
same,TCOH (%),[4]; mice C57BL/6J,12%
same,"TCA(%), percentage of administered TCE excreted in urine",[4]; mice NZW/LacJ,7.1%
same,TCOH (%),[4]; mice NZW/LacJ,31%
same,flux through oxidation metabolism pathway over that through conjugation,[4],"1,200–3,800 fold"
same,overall flux of glutathione conjugation expressed as dose,[4],0.13 to 0.17 mg/kg
same,elimination constant for n-acetylcysteine conjugates in TCE-treated as compared to PCE-treated mice,[4]; higher,1.5 fold
same,TCE elimination rate constant relative to that for PCE,[4]; higher than PCE,2.8 fold
same,formation rate constant of TCA (KTCA) in TCE-treated versus PCE-treated mice,[4]; higher than in PCE-treated mice,2.4 fold
same,"First order rate constant, Elimination NAcT/DCVC→",[4]; [13],23.8 ± 10.5 h⁻¹
same,"First order rate constant, Elimination T/PCE→",[4]; [13],0.49 ± 0.12 h⁻¹
same,"First order rate constant, Elimination TCA→",[4]; [13],0.05 ± 0.02 h⁻¹
same,"First order rate constant, Elimination TCOH→",[4]; [13],0.49 ± 0.13 h⁻¹
same,"First order rate constant, GSH conjugation D/TCVC→NAcD/TCVC",[4]; [13],73.4 ± 17.4 h⁻¹
same,"First order rate constant, GSH conjugation D/TCVC→Reactive species",[4]; [13],1.69 ± 0.45 h⁻¹
same,"First order rate constant, GSH conjugation D/TCVG→D/TCVC",[4]; [13],0.30 ± 0.07 h⁻¹
same,"First order rate constant, GSH conjugation T/PCE→D/TCVG",[4]; [13],(3.5±1.1)*10^−6 h^−1
same,"First order rate constant, Oxidation T/PCE→TCA",[4]; [13],0.034 ± 0.010 h⁻¹
same,"First order rate constant, Oxidation T/PCE→TCOH",[4]; [13],0.13 ± 0.04 h⁻¹
same,"inter-strain variability of AUC of glutathione conjugation metabolites, GSD",[4]; [25],1.04−1.92
same,"inter-strain variability of AUC of oxidative metabolites (TCA and TCOH), GSD",[4]; [25],1.24−2.04
same,"AUC0–36 of TCE as compared to AUC0–36 of PCE, brain","[4]; mouse, in vivo",29.0%
same,elimination rate constant (Ke) of TCA in TCE-treated mice as % of that in PCE-treated mice,"[4]; mouse, in vivo",62.5%
same,yield through glutathione conjugation pathway as % of that through oxidative pathway,[4],0.033%−3.3
same,portion of the parent compound that undergoes metabolism,[4]; range over strains,15.7%−38.3
same,"Excreted TCA, % of the total dose",[4]; [14],3.5%−7.1
same,"TCOH, % of the total dose",[4]; [14],12.2−31.2%
same,estimated fraction of the reactive species formation from cysteine conjugates,[4]; [14],2.1% to 2.4
same,fraction of the total administered dose remaining unmetabolized until excretion,[4]; range over strains,61.7% to 84.3
same,AUC0–36 of TCA in TCE-treated mice as compared to PCE-treated mice,"[4]; serum, liver, brain, and lung, except for C57BL/6J mice, higher",1.2–1.7 fold
same,"TCA(%), percentage of total urinary metabolite calculated based on radioactivity",[5]; [26],15.3 ^* %
same,"TCOH (%), percentage of total urinary metabolite calculated based on radioactivity",[5]; [26],73.6 ^* %
same,"TCA(%), percentage of total urinary metabolite calculated based on radioactivity",[5]; [27],6.3 ^* %
same,"TCOH (%), percentage of total urinary metabolite calculated based on radioactivity",[5]; [27],90.1 ^* %
same,"TCA(%), percentage of administered TCE excreted in urine",[5]; [28],4.1%
same,TCOH (%),[5]; [28],23.2%
same,GSH conjugation (%),[5]; [29],0.06%
same,Oxidation to GSH,[5]; [29],666.7
same,"TCA(%) and TCOH (%), one cell spanning both columns",[5]; [29],40%
same,"TCA(%), percentage of administered TCE excreted in urine","[5]; 505 ppm inhalation, rat F344, M, PBPK model estimate, ref Fisher et al. 1991",6%
same,glutathione conjugation metabolites of TCE in rodents as % of that in humans,[6],approximately 1%
"OCC(Cl)(Cl)Cl [TCOH, trichloroethanol]","AUC0–36 of TCOH compared to that of TCA, brain","[4]; TCE-treated mice, brain",22.7–53.1%
same,"AUC0–36 of TCOH compared to that of TCA, kidney","[4]; TCE-treated mice, kidney",266–322%
same,tissue in which TCOH is most abundant,"[4]; TCE-treated mice, liver, kidney, brain, lung, serum examined",most abundant in kidney
same,"AUC0–36 of TCOH compared to that of TCA, lung","[4]; TCE-treated mice, lung",49.8–68.7%
same,"AUC0–36 of TCOH compared to that of TCA, serum","[4]; TCE-treated mice, serum",35.7–60%
"N[C@@H](CSC(Cl)=C(Cl)Cl)C(=O)O [TCVC, S-(1,2,2-trichlorovinyl)-L-cysteine]",doses at which most studies reported kidney effects,"kidney; directly administered cysteine conjugates, acute, sub-acute and sub-chronic exposure, ref Birner et al. 1997, Shirai et al. 2012, Vaidya et al. 2003",above 10 mg/kg
same,comparative nephrotoxicity of TCVC and DCVC,"kidney; equimolar doses compared, ref Birner et al. 1997",more nephrotoxic than DCVC
